Source: PubChem BioAssay AID1963839 (Molecular Pharmacology Branch, DTP, NCI, 2024)
Where “and” joins values, the source holds several entries; their conditions need not be identical. Equal entries are not always repeated.

Tested on: 817829-284-R-J1-PDC complex spheroid viability
Experiment: Anticancer human tumor 817829-284-R-J1-PDC patient-derived colon adenocarcinoma cell line growth inhibition [POLQ]
Settings: for viability, T/C: stronger effect = lower value
Summary of the method: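 PDC + HUVEC + MSC complex spheroids; POLQ inhibitors ± partner drugs; top conc. at/near clinical Cmax, else 10 microM (SN-38 1 microM), half-log dilutions; 37 degrees C, 5% CO2.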

[1] = curve of first compound, second compound 0.0316 µM
[2] = curve of first compound, second compound 0.1 µM
[3] = curve of first compound, second compound 0.316 µM
[4] = curve of first compound, second compound 1 µM
[5] = curve of first compound, second compound 3.16 µM
[6] = curve of first compound, second compound 10 µM
[7] = second compound 0.0316 µM, first compound 0.0316 µM
[8] = second compound 0.0316 µM, first compound 0.1 µM
[9] = second compound 0.1 µM, first compound 0.0316 µM
[10] = second compound 0.1 µM, first compound 0.1 µM
[11] = second compound 0.316 µM, first compound 0.0316 µM
[12] = second compound 0.316 µM, first compound 0.1 µM
[13] = second compound 1 µM, first compound 0.0316 µM
[14] = second compound 1 µM, first compound 0.1 µM
[15] = second compound 3.16 µM, first compound 0.0316 µM
[16] = second compound 3.16 µM, first compound 0.1 µM
[17] = second compound 10 µM, first compound 0.0316 µM
[18] = second compound 10 µM, first compound 0.1 µM
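Note: spheroids exposed to compounds for 7 days.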
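Throughout, for viability, T/C: 100% = DMSO vehicle-treated spheroids.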

Compound: COc1cccc(OCCCN)c1-c1cc(Nc2cnc(C#N)cn2)n[nH]1
- viability, T/C (compound 0.00316 µM): 33.5% and 96.3% and 91.2%
- viability, T/C (compound 0.01 µM): 8.6% and 15.6% and 14.9%
- viability, T/C (compound 0.0316 µM): 6.55% and 5.13% and 5.86%
- viability, T/C (compound 0.1 µM): 4.87% and 4.67% and 4.64%
- viability, T/C (compound 0.316 µM): 4.09% and 5.43% and 4.13%
- viability, T/C (compound 1 µM): 3.68% (2×) and 3.24%
- IC50 (curve of compound): < 3.16 nM and 6.13 nM and 5.89 nM

Compound: Cn1ncnc1[C@H]1c2n[nH]c(=O)c3cc(F)cc(c23)N[C@@H]1c1ccc(F)cc1 + COC1C(OC(N)=O)C(O)C(Oc2ccc3c(O)c(NC(=O)c4ccc(O)c(CC=C(C)C)c4)c(=O)oc3c2C)OC1(C)C
- IC50 [1]: 31 nM
- IC50 [2]: 4.86 nM
- IC50 [3]: 19.8 nM
- IC50 [4]: 24 nM
- IC50 [5]: 10.2 nM
- IC50 [6]: 31 nM
- viability, T/C (second compound 0.0316 µM, first compound 0.000316 µM): 107%
- viability, T/C (second compound 0.0316 µM, first compound 0.001 µM): 63.2%
- viability, T/C (second compound 0.0316 µM, first compound 0.00316 µM): 72.3%
- viability, T/C (second compound 0.0316 µM, first compound 0.01 µM): 62.6%
- viability, T/C [7]: 55.5%
- viability, T/C [8]: 36.5%
- viability, T/C (second compound 0.1 µM, first compound 0.000316 µM): 103%
- viability, T/C (second compound 0.1 µM, first compound 0.001 µM): 109%
- viability, T/C (second compound 0.1 µM, first compound 0.00316 µM): 52.9%
- viability, T/C (second compound 0.1 µM, first compound 0.01 µM): 60.4%
- viability, T/C [9]: 39.9%
- viability, T/C [10]: 35.4%
- viability, T/C (second compound 0.316 µM, first compound 0.000316 µM): 104%
- viability, T/C (second compound 0.316 µM, first compound 0.001 µM): 94.9%
- viability, T/C (second compound 0.316 µM, first compound 0.00316 µM): 74.4%
- viability, T/C (second compound 0.316 µM, first compound 0.01 µM): 65.3%
- viability, T/C [11]: 38%
- viability, T/C [12]: 36.2%
- viability, T/C (second compound 1 µM, first compound 0.000316 µM): 94.9%
- viability, T/C (second compound 1 µM, first compound 0.001 µM): 107%
- viability, T/C (second compound 1 µM, first compound 0.00316 µM): 85.4%
- viability, T/C (second compound 1 µM, first compound 0.01 µM): 65%
- viability, T/C [13]: 47.8%
- viability, T/C [14]: 31.8%
- viability, T/C (second compound 3.16 µM, first compound 0.000316 µM): 86.8%
- viability, T/C (second compound 3.16 µM, first compound 0.001 µM): 102%
- viability, T/C (second compound 3.16 µM, first compound 0.00316 µM): 97.7%
- viability, T/C (second compound 3.16 µM, first compound 0.01 µM): 50.1%
- viability, T/C [15]: 49.9%
- viability, T/C [16]: 40.3%
- viability, T/C (second compound 10 µM, first compound 0.000316 µM): 137%
- viability, T/C (second compound 10 µM, first compound 0.001 µM): 124%
- viability, T/C (second compound 10 µM, first compound 0.00316 µM): 69.8%
- viability, T/C (second compound 10 µM, first compound 0.01 µM): 71.6%
- viability, T/C [17]: 67.2%
- viability, T/C [18]: 22.3%

Compound: CC1COCCN1c1cc(-c2ccnn2C)c2ccnc(-c3ccn[nH]3)c2n1 (stereo not drawn)
- viability, T/C (compound 0.0316 µM): 33.8% and 33.3% and 74.6%
- viability, T/C (compound 0.1 µM): 11.3% and 12.5% (2×)
- viability, T/C (compound 0.316 µM): 7.44% and 7.37% and 5.59%
- viability, T/C (compound 1 µM): 4.37% and 3.99% and 4.03%
- viability, T/C (compound 3.16 µM): 3.67% and 2.87% and 3.57%
- viability, T/C (compound 10 µM): 2.72% and 2.9% and 2.76%
- IC50 (curve of compound): < 31.6 nM and 49.9 nM

Compound: COc1cc(C2c3cc4c(cc3C(OC3OC5COC(C)OC5C(O)C3O)C3COC(=O)C23)OCO4)cc(OC)c1O (stereo not drawn) + COC1C(OC(N)=O)C(O)C(Oc2ccc3c(O)c(NC(=O)c4ccc(O)c(CC=C(C)C)c4)c(=O)oc3c2C)OC1(C)C
- IC50 [1]: < 31.6 nM
- IC50 [2]: 62.2 nM
- IC50 [3]: 38.7 nM
- IC50 [4]: 77.8 nM
- IC50 [5]: 74.9 nM
- IC50 [6]: 61.4 nM
- viability, T/C [7]: 47.9%
- viability, T/C [8]: 31.3%
- viability, T/C (second compound 0.0316 µM, first compound 0.316 µM): 16.2%
- viability, T/C (second compound 0.0316 µM, first compound 1 µM): 14.4%
- viability, T/C (second compound 0.0316 µM, first compound 3.16 µM): 11.2%
- viability, T/C (second compound 0.0316 µM, first compound 10 µM): 5.8%
- viability, T/C [9]: 74.1%
- viability, T/C [10]: 31.2%
- viability, T/C (second compound 0.1 µM, first compound 0.316 µM): 19.5%
- viability, T/C (second compound 0.1 µM, first compound 1 µM): 19.1%
- viability, T/C (second compound 0.1 µM, first compound 3.16 µM): 11.8%
- viability, T/C (second compound 0.1 µM, first compound 10 µM): 6.51%
- viability, T/C [11]: 53.6%
- viability, T/C [12]: 34.5%
- viability, T/C (second compound 0.316 µM, first compound 0.316 µM): 15.2%
- viability, T/C (second compound 0.316 µM, first compound 1 µM): 15.6%
- viability, T/C (second compound 0.316 µM, first compound 3.16 µM): 12.6%
- viability, T/C (second compound 0.316 µM, first compound 10 µM): 6.15%
- viability, T/C [13]: 79.2%
- viability, T/C [14]: 42.2%
- viability, T/C (second compound 1 µM, first compound 0.316 µM): 15.8%
- viability, T/C (second compound 1 µM, first compound 1 µM): 16.3%
- viability, T/C (second compound 1 µM, first compound 3.16 µM): 11.7%
- viability, T/C (second compound 1 µM, first compound 10 µM): 6.63%
- viability, T/C [15]: 83.7%
- viability, T/C [16]: 38.8%
- viability, T/C (second compound 3.16 µM, first compound 0.316 µM): 18.1%
- viability, T/C (second compound 3.16 µM, first compound 1 µM): 19.1%
- viability, T/C (second compound 3.16 µM, first compound 3.16 µM): 13.6%
- viability, T/C (second compound 3.16 µM, first compound 10 µM): 6.38%
- viability, T/C [17]: 68.8%
- viability, T/C [18]: 36.6%
- viability, T/C (second compound 10 µM, first compound 0.316 µM): 17.9%
- viability, T/C (second compound 10 µM, first compound 1 µM): 20.1%
- viability, T/C (second compound 10 µM, first compound 3.16 µM): 11.6%
- viability, T/C (second compound 10 µM, first compound 10 µM): 6.29%

Compound: CNCc1ccc(-c2[nH]c3cc(F)cc4c3c2CCNC4=O)cc1
- viability, T/C (compound 0.0316 µM): 86.8% and 88% and 73.1%
- viability, T/C (compound 0.1 µM): 81.9% and 77.7% and 81.3%
- viability, T/C (compound 0.316 µM): 63.4% and 89.9% and 53.7%
- viability, T/C (compound 1 µM): 68.6% and 81.8% and 58.3%
- viability, T/C (compound 3.16 µM): 51.3% and 64.6% and 58.9%
- viability, T/C (compound 10 µM): 47.6% (2×) and 40.2%
- IC50 (curve of compound): 6530 nM and 6300 nM and 9450 nM

Compound: COc1cc2cc(C(=O)CCC(=O)O)sc2cc1OC
- viability, T/C (compound 0.0316 µM): 114% and 112% and 90.4%
- viability, T/C (compound 0.1 µM): 88.4% and 107% and 83.7%
- viability, T/C (compound 0.316 µM): 94% and 105% and 84%
- viability, T/C (compound 1 µM): 81.1% and 89.5% and 102%
- viability, T/C (compound 3.16 µM): 100% and 110% and 98.6%
- viability, T/C (compound 10 µM): 88.8% and 101% and 63.2%
- IC50 (curve of compound): > 10000 nM

Compound: CC(=O)O[C@H]1C(=O)[C@@]2(C)[C@H]([C@H](OC(=O)c3ccccc3)[C@]3(O)C[C@H](OC(=O)[C@H](O)[C@@H](NC(=O)c4ccccc4)c4ccccc4)C(C)=C1C3(C)C)[C@]1(OC(C)=O)CO[C@@H]1C[C@@H]2O
- viability, T/C (compound 0.00949 µM): 5.15% and 4.45% and 5.76%
- viability, T/C (compound 0.03 µM): 3.94% and 3.44% and 4.19%
- viability, T/C (compound 0.0949 µM): 3.9% and 3.92% and 5.6%
- viability, T/C (compound 0.3 µM): 4.36% and 3.82% and 4.56%
- viability, T/C (compound 0.949 µM): 4.81% and 4.08% and 5.15%
- viability, T/C (compound 3 µM): 4.4% and 3.61% and 5.14%
- IC50 (curve of compound): < 9.49 nM

Compound: O=C(Nc1ccc(O)c(NS(=O)(=O)c2ccc(F)cc2)c1)c1ccc(-c2ccccc2)cc1
- viability, T/C (compound 0.0316 µM): 94% and 91.9% and 101%
- viability, T/C (compound 0.1 µM): 96.5% and 104% and 103%
- viability, T/C (compound 0.316 µM): 93.7% and 100% and 103%
- viability, T/C (compound 1 µM): 92.4% and 99.3% and 78.3%
- viability, T/C (compound 3.16 µM): 73.5% and 88.2% and 76.5%
- viability, T/C (compound 10 µM): 38.7% and 41.5% and 39.8%
- IC50 (curve of compound): 6880 nM and 8170 nM and 7070 nM

Compound: C=CCn1c(=O)c2cnc(Nc3ccc(N4CCN(C)CC4)cc3)nc2n1-c1cccc(C(C)(C)O)n1
- viability, T/C (compound 0.00316 µM): 115% and 101% and 105%
- viability, T/C (compound 0.01 µM): 93.7% and 84% and 89.8%
- viability, T/C (compound 0.0316 µM): 71.1% and 89.5% and 98.8%
- viability, T/C (compound 0.1 µM): 77.6% and 72.5% and 64.8%
- viability, T/C (compound 0.316 µM): 36.1% and 33.8% and 40.5%
- viability, T/C (compound 1 µM): 5.95% and 6.09% and 5.44%
- IC50 (curve of compound): 188 nM and 195 nM and 208 nM
